This passage reports IC50 and MIC results from patent US5703094A, “Quinolone- and naphthyridonecarboxylic acid derivatives” (Bayer Aktiengesellschaft, priority 1995, dated 1997).

A short description of data set [1]: inhibition of DNA synthesis in CHO-KI cells (interactions with mammalian DNA), fluorophotometric. It counts as cell-based, Chinese hamster. To be noted: hamster, cho-k1 cells, measure of interactions with mammalian DNA, read-out: ID50 (concentration at which DNA synthesis is inhibited by 50%). The source says:
(§1) Tables 9 and 10 show the minimum inhibitory concentrations (MIC values), as a measure of the antibacterial activity, and the ID50 values, as a measure of the interactions with mammalian DNA of a substance, both for compounds according to the invention and for reference compounds from the prior art (EP 520 240).
The ID50 is understood as meaning the concentration of a substance at which DNA synthesis in cells from ovaries of the Chinese hamster (CHO-KI) is inhibited by 50%. This value is determined after incubation of the corresponding substances in decreasing dilution stages over defined periods of time. For this, the DNA synthesis in CHO-KI cells is determined in comparison with controls by means of fluorophotometric methods.

In a further data set the test system is Staph. aureus ICB 25701. The data set can be described thus: minimum inhibitory concentration, series dilution method on Iso-Sensitest agar. The class given is cell-based. To be noted: Staphylococcus aureus, ICB25701, 37° C., about 20 hours. On the procedure:
as §1
(§2) The minimum inhibitory concentrations (MIC) were determined by a series dilution method on Iso-Sensitest agar (Oxoid). For each test substance, a series of agar plates each comprising concentrations of the active compound decreasing by double dilution in each case was prepared. The agar plates were inoculated with a multipoint inoculator (Denley). Overnight cultures of the pathogens which had been diluted beforehand such that each inoculation point comprised about 10^4 colony-forming particles were used for the inoculation. The inoculated agar plates were incubated at 37° C. and the germ growth was read off after about 20 hours. The MIC value (μg/ml) indicates the lowest active compound concentration at which no growth was detectable with the naked eye.

Another data set concerns E. coli Neumann. Described as above. The class given is cell-based. The note with it: Escherichia coli, 37° C., about 20 hours. On the procedure:
as §1, §2

In another data set the test system is Staph. aureus 133. Described as above. It counts as cell-based. The note with it: Staphylococcus aureus, 37° C., about 20 hours. On the procedure: as §1, §2
Another data set concerns Ps. aeruginosa Walter. The data set is described as above. The class given is cell-based. To be noted: Pseudomonas aeruginosa, 37° C., about 20 hours. As for the experimental part: as §1, §2

Converted amounts (≈) assume the structure as drawn. Bounds are passed on as bounds.

What is called MIC is the lowest concentration that inhibits growth of the organism. With `N[C@@H]1CCC=C2CN(c3c(F)cc4c(=O)c(C(=O)O)cn(C5CC5)c4c3F)C[C@@H]21` (racemic) [Example 1, 7-[(3aRS,4RS)-4-amino-2,3,3a,4,5,6-hexahydro-1H-isoindol-2-yl]-1-cyclopropyl-6,8-difluoro-1,4-dihydro-4-oxo-3-quinolinecarboxylic acid], the IC50 in data set [1] was found to be 4 µg/mL (≈ 9.96 µM). Further, the MIC with Staph. aureus ICB 25701 was ≤ 0.015 µg/mL; with E. coli Neumann, ≤ 0.015 µg/mL; against Staph. aureus 133, ≤ 0.015 µg/mL; with Ps. aeruginosa Walter, 0.125 µg/mL (≈ 0.311 µM).

Consider `NC1C=CCC2CN(c3cc4c(cc3F)c(=O)c(C(=O)O)cn4C3CC3)CC12` (centres unmarked) [Example 19, 7(4-amino-1,3,3a,4,7,7a-hexahydro-isoindol-2-yl)-1-cyclopropyl-6-fluoro-14-dihydro-4-oxo-3-quinolinecarboxylic acid, reference compound], for which the IC50 in data set [1] amounted to 1 µg/mL (≈ 2.61 µM). Besides, the MIC in the data set on Staph. aureus ICB 25701 was 1 µg/mL (≈ 2.61 µM); against E. coli Neumann, ≤ 0.015 µg/mL; against Staph. aureus 133, ≤ 0.015 µg/mL; in the data set with Ps. aeruginosa Walter, 1 µg/mL (≈ 2.61 µM).

As to `NC1C=CCC2CN(c3c(F)cc4c(=O)c(C(=O)O)cn(C5CC5)c4c3F)CC12` (centres unmarked) [Example 17 B, 7(4-amino-1,3,3a,4,7,7a-hexahydro-isoindol-2-yl)-1-cyclopropyl-6,8-difluoo-1,4-dihydro-4-oxo-3-quinolinecarboxylic acid, reference compound], the IC50 in data set [1] turned out to be 0.01 µg/mL (≈ 0.0249 µM). Further, the minimal inhibitory concentration (MIC) in the data set on Staph. aureus ICB 25701 was 0.03 µg/mL (≈ 0.0747 µM); against E. coli Neumann, ≤ 0.015 µg/mL; against Staph. aureus 133, ≤ 0.015 µg/mL; with Ps. aeruginosa Walter, 0.25 µg/mL (≈ 0.623 µM).

On to `N[C@@H]1CCC=C2CN(c3c(F)cc4c(=O)c(C(=O)O)cn(C5CC5)c4c3Cl)C[C@@H]21` (racemic) [Example 3, 7-[(3aRS,4RS)-4-amino-2,3,3a,4,5,6-hexahydro-1H-isoindol-2-yl]-8-chloro-1-cyclopropyl-6-fluoro-1,4-dihydro-4-oxo-3-quinolinecarboxylic acid], for which the IC50 in data set [1] worked out at 0.1 µg/mL (≈ 0.239 µM). The MIC against Staph. aureus ICB 25701 was ≤ 0.015 µg/mL; in the data set on E. coli Neumann, ≤ 0.015 µg/mL; with Staph. aureus 133 it was ≤ 0.015 µg/mL; against Ps. aeruginosa Walter, 0.5 µg/mL (≈ 1.2 µM).

As for `N[C@@H]1CCC=C2CN(c3cc4c(cc3F)c(=O)c(C(=O)O)cn4C3CC3)C[C@@H]21` (racemic) [Example 2, 7-[(3aRS,4RS)-4-amino-2,3,3a,4,5,6-hexahydro-1H-isoindol-2-yl]-1-cyclopropyl-6-fluoro-1,4-dihydro-4-oxo-3-quinolinecarboxylic acid], the IC50 in data set [1] is 2 µg/mL (≈ 5.22 µM). For the same molecule, the MIC against Staph. aureus ICB 25701 is 0.125 µg/mL (≈ 0.326 µM); against E. coli Neumann, ≤ 0.015 µg/mL; against Staph. aureus 133, ≤ 0.015 µg/mL; in the data set with Ps. aeruginosa Walter it was 1 µg/mL (≈ 2.61 µM).

Consider `NC1C=CCC2CN(c3c(F)cc4c(=O)c(C(=O)O)cn(C5CC5)c4c3Cl)CC12` (centres unmarked) [Example 18 A, 7(4-amino-1,3,3a4,7,7a-hexahydro-isoindol-2-yl)-8-chloro-1-cyclopropyl-6-luoro-1,4-dihydro-4-oxo-3-quinolinecarboxylic acid, reference compound], for which the IC50 in data set [1] amounted to 0.06 µg/mL (≈ 0.144 µM). Besides, the minimal inhibitory concentration (MIC) against Staph. aureus ICB 25701 was ≤ 0.015 µg/mL; with E. coli Neumann, ≤ 0.015 µg/mL; in the data set on Staph. aureus 133 it was ≤ 0.015 µg/mL; in the data set on Ps. aeruginosa Walter, 0.25 µg/mL (≈ 0.598 µM).

As to `N[C@@H]1CCC=C2CN(c3c(F)cc4c(=O)c(C(=O)O)cn([C@@H]5C[C@@H]5F)c4c3F)C[C@@H]21` (relative stereo) [Example 4, 7-[(3aRS,4RS)-4-amino-2,3,3a,4,5,6-hexahydro-1H-isoindol-2-yl]-6,8-difluoro-1-(cis-2-fluorocyclopropyl)-1,4-dihydro-4-oxo-3-quinolinecarboxylic acid], the IC50 in data set [1] is 2 µg/mL (≈ 4.77 µM). Besides, the minimal inhibitory concentration (MIC) against Staph. aureus ICB 25701 is 0.03 µg/mL (≈ 0.0715 µM); with E. coli Neumann, ≤ 0.015 µg/mL; in the data set with Staph. aureus 133 it was ≤ 0.015 µg/mL; in the data set on Ps. aeruginosa Walter it was 0.25 µg/mL (≈ 0.596 µM).
